Reference: patent publication US20250101062A1, “ANTIMICROBIAL PEPTIDES” (Board of Regents of the University of Nebraska, priority 2023, published 2025)
Where no end group is shown, it is not given here.

What was measured:
MRSA USA300 = experiment: microbe, parasite or virus in culture; assay type: cell-based, Staphylococcus aureus; settings: 17 passages at sub-MIC
Description: The experiment was conducted as described (Lakshmaiah et al. (2020) Proc. Natl. Acad. Sci., 117:19446-19454). Briefly, MRSA USA300 was grown to the exponential phase in MHB and diluted to OD600 0.001 (˜10^5 CFU/mL). Aliquots of 90 μL were added to a 96-well polystyrene microplate (Costar, Corning, NY) containing 10 μL of serially diluted LL-37mini, nafcillin, or daptomycin. After overnight incubation at 37° C., the plates were read at 600 nm using a ChroMate™ microplate reader (GMI, Ramsey, MN). Untreated bacterial culture and medium were included as untreated control and blank, respectively. The MIC is the lowest peptide concentration that inhibited the bacterial growth. The wells with sub-MIC levels of the peptides that retained growth approximately half the growth of the control wells were reinoculated in fresh MHB with sub-MIC concertation of peptides or antibiotics to attain exponential phase for MIC determination. In total, 17 passages of the bacterial cultures were conducted. A rapid increase in MIC is an indication of antibiotic resistance.

[1] = test system: S. aureus USA300 LAC biofilms; experiment: Disruption of preformed biofilms in vitro (XTT); assay type: cell-based, Staphylococcus aureus
Description: Effects of Peptides on Established Biofilms in Vitro. Bacteria (S. aureus USA300 LAC and E. coli E423-17) were grown in rich TSB media overnight. A second inoculation was made the next day to reach an exponential phase (OD600˜0.4). Microtiter plates (96 wells, Corning Costar Cat no. 3595), after aliquoting with 180 μL of the culture to each well, were incubated at 37° C. for 24 hours to form biofilms in rich TSB. Media were aspirated post incubation, and the attached biofilms were washed with 1×PBS to remove the planktonic bacteria. […] Biofilms treated with water served as the positive control, while media without bacterial inoculation served as the negative control. Live cells in the biofilms were quantitated using XTT as described above. Absorbance was read at 450 nm (only media with XTT containing wells served as the blank) using a ChroMate™ microtiter plate reader. Percentage biofilm growth for the peptide was plotted by assuming 100% biofilm growth in bacterial control alone. The data were represented as mean±SD; plots were generated using GraphPad prism 7, where * indicates p<0.05, **p<0.01, and ***P<0.001, and ****p<0.0001 (one-way analyses of variance).
LL-37 is known to inhibit bacterial biofilms (Overhage, et al. (2008) Infect. Immun., 76:4176-4182). However, it was unable to disrupt preformed MRSA biofilms in rich media (Mishra, et al. (2016) ACS Med. Chem. Lett., 7:117-121). Next, it was determined whether the diluted MHB medium could be useful to detect biofilm-disrupting activity for LL-37 against MRSA. An established procedure (Mishra, et al. (2016) ACS Med. Chem. Lett., 7:117-121; Duplantier, et al. (2013) Front. Immunol., 4:143) was used wherein biofilms were formed and washed as usual to remove planktonic cells. The biofilms were then treated with peptides in 12.5% MHB for 24 hours. Finally, live cells were quantified with XTT (ATCC). FIG. 2 compares the levels of live cells of MRSA in the preformed biofilms after 24 hour treatment. […] Of note is a similar pattern for both peptides in 12.5% MHB treated at various concentrations.
Bacteria (S. aureus USA300 LAC or P. aeruginosa E411-17) were grown up in TSB media overnight. A second inoculation was made the next day to reach an exponential phase (OD600˜0.4). Microtiter plates (96 wells, Corning Costar Cat No. 3595), after aliquoting with 180 μL of the culture to each well, were incubated at 37° C. for 24 hours to form biofilms in rich TSB. Media were aspirated post incubation and the attached biofilms were washed with 1×PBS to remove the planktonic bacteria. […] Biofilms treated with water served as the positive control while media without bacterial inoculation served as the negative control. Live cells in the biofilms were quantitated using the XTT as described above. Absorbance was read at 450 nm (only media with XTT containing wells served as the blank) using a ChroMate® microtiter plate reader. Percentage biofilm growth (the plot legend is antibiofilm activity) for the peptides was plotted by assuming 100% biofilm growth in bacterial control alone. The data were represented as mean±SD, plots were generated using GraphPad prism 7, where * indicates p<0.05, ** p<0.01, and ***P<0.001, and ****p<0.0001 (one-way analyses of variance).

K. pneumoniae E406-17 = assay type: cell-based, Klebsiella pneumoniae
How it was run: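 Peptides twofold serially diluted against exponential-phase resistant clinical isolates at ~10^5 CFU/mL in MHB (also diluted MHB, TSB or LB in one protocol), CLSI-based broth microdilution. Incubated overnight at 37° C., OD 600 nm read; MIC taken as lowest concentration without growth, reported as ranges.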

CCCCCCCCCC(=O)N[C@@H](Cc1c[nH]c2ccccc12)C(=O)N[C@H](CC(N)=O)C(=O)N[C@@H](CC(=O)O)C(=O)N[C@@H]1C(=O)NCC(=O)N[C@@H](CCCN)C(=O)N[C@@H](CC(=O)O)C(=O)N[C@H](C)C(=O)N[C@@H](CC(=O)O)C(=O)NCC(=O)N[C@H](CO)C(=O)N[C@@H]([C@H](C)CC(=O)O)C(=O)N[C@@H](CC(=O)c2ccccc2N)C(=O)O[C@@H]1C [Daptomycin]
resistance development (MRSA USA300): did not develop resistance

CC[C@H](C)[C@H](NC(=O)[C@H](CCCCN)NC(=O)[C@H](CCC(=O)O)NC(=O)[C@H](CCCCN)NC(=O)[C@H](CO)NC(=O)[C@H](CCCCN)NC(=O)[C@H](CCCNC(=N)N)NC(=O)[C@H](Cc1ccccc1)NC(=O)[C@H](Cc1ccccc1)NC(=O)[C@H](CC(=O)O)NC(=O)CNC(=O)[C@H](CC(C)C)NC(=O)[C@@H](N)CC(C)C)C(=O)NCC(=O)N[C@@H](CCCCN)C(=O)N[C@@H](CCC(=O)O)C(=O)N[C@@H](Cc1ccccc1)C(=O)N[C@@H](CCCCN)C(=O)N[C@@H](CCCNC(=N)N)C(=O)N[C@H](C(=O)N[C@H](C(=O)N[C@@H](CCC(N)=O)C(=O)N[C@@H](CCCNC(=N)N)C(=O)N[C@H](C(=O)N[C@@H](CCCCN)C(=O)N[C@@H](CC(=O)O)C(=O)N[C@@H](Cc1ccccc1)C(=O)N[C@@H](CC(C)C)C(=O)N[C@@H](CCCNC(=N)N)C(=O)N[C@@H](CC(N)=O)C(=O)N[C@@H](CC(C)C)C(=O)N[C@H](C(=O)N1CCC[C@H]1C(=O)N[C@@H](CCCNC(=N)N)C(=O)N[C@H](C(=O)N[C@@H](CCC(=O)O)C(=O)N[C@@H](CO)C(=O)O)[C@@H](C)O)C(C)C)[C@@H](C)CC)C(C)C)[C@@H](C)CC [LL-37]
peptide concentration showing biofilm disruption ([1]; 24 h preformed biofilm, 12.5% MHB): 32 µM
antibiofilm activity ([1]; 24 h preformed biofilm, 100% MHB): essentially no antibiofilm activity

RRWWRWWR-NH2 [W543]
Activity (MIC) K. pneumoniae (K. pneumoniae E406-17): >32 µM
effect on preformed biofilms ([1]; 48 or 72 hour preformed biofilms): Better disruptive effects than daptomycin
effect on preformed biofilms ([1]; 24 hours preformed biofilms, 32 μM): essentially eliminated
resistance development (MRSA USA300): essentially no change in the MIC values
